# Measured values reported in paper PMC7943729, “Cell-Free DNA Promotes Thrombin Autolysis and Generation of Thrombin-Derived C-Terminal Fragments” (Frontiers in Immunology, 2021).
# How the values were obtained:
# human thrombin [1] = molecular target: T1, human thrombin (Homo sapiens, UniProt P00734); assay: Thrombin autolysis determination by western blot; assay type: biochemical
# T1 construct: purchased Innovative Research USA
# Description: 10 µl of citrate plasma was added to increasing concentration of DNA (6.25, 12.5, 25, and 50 µg/ml) resuspended in 10 mM Tris, pH 7.4 (total volume of 20 µl). Following an hour pre-incubation at 37 °C, 2.5 mM CaCl2 was added to samples and further incubated for 1 hour at 37 °C. After incubation, samples were boiled for 15 min with sample buffer and were analyzed by SDS-PAGE using Novex 10–20% Tris Tricine precast gels. Post electrophoresis, the gel was transferred to a PVDF membrane and blocked with 5% milk for an hour before western blotting. For detection of C-terminal thrombin fragments, overnight incubation of the blots was performed with polyclonal antibodies recognizing the thrombin C-terminal peptide VFR17 ([…]) in 1:5,000 dilution at 4 °C. […]
# DNA dependent thrombin autolysis was analyzed by incubating 0.4 µg of human thrombin (Innovative Research USA) in the presence or absence of equal weight ratio (1:1) of DNA in a total volume of 10 µl for different time points (1, 2, 4, and 6 h). […] Thrombin autolysis inhibition was analyzed using 0.4 µg of heat inactivated thrombin (preboiled for 10 mins at 95 °C) incubated with equal weight ratio (1:1) of DNA for extended time of 6 h. […] In all cases, after the incubation at 37 °C, samples were boiled for 10 min in sample buffer and analyzed by western blotting as mentioned above.
# genomic DNA = assay: DNA gel shift assay (agarose gel mobility shift); assay type: binding, human; settings: 200 ng gDNA (20 µg/ml), 10-200 ng protein or peptide, 10 mM Tris pH 7.4, 1 h 37 °C, 0.8% agarose gel, SYBR Safe; n = 3
# Description: The DNA used for agarose gel and western blot analysis was extracted from cultured human keratinocytes (HaCaT) cells using E.Z.N.A. DNA/RNA Isolation kit (Omega Bio-Tek USA) or E. coli DH5α plasmid DNA (pUC19) using Qiagen plasmid purification kits (Qiagen USA) according to the manufacturer’s protocol.
# Following this, the samples were analyzed by gel electrophoresis on a 0.8% agarose (w/v) gel in 1X Tris acetate-EDTA (TAE) buffer with SYBR Safe and visualized with the ChemiDoc Imaging System (Bio-Rad, USA).
# human thrombin [2] = molecular target: T1, human thrombin; settings: thrombin autolysis without DNA; cited from earlier work
# Excerpt: Previous studies have shown that the rate of autolysis increases with concentration of thrombin, pH, temperature and concentration of monovalent cations ([31], [32]).
# [3] = molecular target: T2, human neutrophil elastase (Homo sapiens, UniProt P08246); assay: Protease protection assay; assay type: in vitro ADME; settings: NE 1:30, 37 °C, western blot
# T2 sequence (P08246 30-267): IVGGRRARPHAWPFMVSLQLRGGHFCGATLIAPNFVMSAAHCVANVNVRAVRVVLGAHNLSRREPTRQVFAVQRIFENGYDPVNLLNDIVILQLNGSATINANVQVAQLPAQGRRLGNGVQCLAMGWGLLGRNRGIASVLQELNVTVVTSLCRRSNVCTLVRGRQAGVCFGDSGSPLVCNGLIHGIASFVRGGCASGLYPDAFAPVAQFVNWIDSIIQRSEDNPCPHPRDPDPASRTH
# Description: Thrombin or GKY25 (0.4 µg) was incubated with DNA (w/w ratio = 1:1) in 10 mM Tris, pH 7.4 for 4 h, followed by addition of neutrophil elastase at enzyme: substrate ratio of 1:30 and incubated for various time points (1, 2, and 3 h). Post incubation, samples were boiled for 3 min to inhibit the reaction and further analyzed by Tricine SDS-PAGE as described above.
molecule,measurement,setting,value
O=S(=O)(F)Cc1ccccc1 [PMSF],inhibition of DNA-induced TCP formation,"human thrombin [1]; 0.4 µg thrombin, DNA 1:1 w/w, 4 h 37 °C, PMSF 1 mM, protease inhibitor cocktail 1X",abrogated the formation of TCPs
heparin,induction of thrombin fragmentation / TCP formation,"human thrombin [1]; 0.4 µg human thrombin, 37 °C, western blot with anti-VFR17, DNA 1:1 for 1-6 h, NETs 4 h, heparin 1:0.5 and 1:1 for 1 h",did not induce thrombin fragmentation or TCP formation
thrombin,amount giving complete retardation of DNA,genomic DNA,≥ 160 ng
same,amount giving reduced DNA migration,genomic DNA,40 ng
same,time for complete autolytic conversion to γ-thrombin,human thrombin [2],~144 h
same,thrombin fragments after neutrophil elastase in the presence of DNA,"[3]; 0.4 µg thrombin with gDNA 1:1 w/w, increasing incubation time 60-180 min",a higher signal intensity of the 3 kDa TCP
same,cleavage of thrombin by neutrophil elastase without DNA,"[3]; 0.4 µg thrombin, control lanes without DNA, 60-180 min",cleaved thrombin to release multiple TCPs
